Drawing on US20230183237A1, “COMPETITIVE AND NONCOMPETITIVE INHIBITORS OF THE MUSCARINIC ACETYLCHOLINE RECEPTOR M5” (Vanderbilt University, priority 2020, published 2023), this text covers IC50 for 30 compounds.

pIC50: −log10 of the molar value. Some results are limits rather than exact numbers.

For this test, the target named is T1, hM5 (Homo sapiens, UniProt P08912).
T1 construct: expressed in transfected cells
T1 sequence (P08912 1-532): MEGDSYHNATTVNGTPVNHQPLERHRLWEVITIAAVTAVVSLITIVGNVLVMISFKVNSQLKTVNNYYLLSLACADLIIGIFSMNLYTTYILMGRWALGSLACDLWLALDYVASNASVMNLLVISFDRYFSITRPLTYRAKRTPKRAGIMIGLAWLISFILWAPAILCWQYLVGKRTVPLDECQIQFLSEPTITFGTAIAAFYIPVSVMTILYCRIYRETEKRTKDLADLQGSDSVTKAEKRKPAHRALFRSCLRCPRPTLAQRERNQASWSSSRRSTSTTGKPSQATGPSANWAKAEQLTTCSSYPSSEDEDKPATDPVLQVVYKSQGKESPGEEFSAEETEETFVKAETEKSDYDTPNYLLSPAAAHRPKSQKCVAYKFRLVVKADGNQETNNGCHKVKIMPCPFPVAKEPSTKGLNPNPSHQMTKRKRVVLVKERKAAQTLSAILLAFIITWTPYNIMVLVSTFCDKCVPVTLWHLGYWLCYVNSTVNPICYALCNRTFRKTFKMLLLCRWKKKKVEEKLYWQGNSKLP
As to the kind of experiment: Calcium mobilization concentration-response (IC50 vs EC80 acetylcholine), CHO hM5. To be noted: CELL LINE hM5; calcium mobilization, EC80 acetylcholine addition; read-out: IC50. In kind it is cell-based. A digest of the protocol: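 IC50 values derive from percent maximal acetylcholine response after an EC80 ACh addition, measured as kinetic calcium fluorescence (static ratio, max−min). Test compounds were added 140 s before agonist. Cells: stable hM5-CHO in HEPES-buffered HBSS with 2.5 mM probenecid, pH 7.4; ≥3 independent triplicate determinations.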
Turning to `Cc1nc(C)c(S(=O)(=O)N2CCC(c3cn4ncnc4cc3F)CC2)s1` [Compound 235, 5-((4-(7-fluoro-[1,2,4]triazolo[1,5-a]pyridin-6-yl)piperidin-1-yl)sulfonyl)-2,4-dimethylthiazole], the pIC50 is under 5.00.

Regarding `O=S(=O)(c1cnn2c1CCCC2)N1CCC(c2cn3ncnc3cc2F)CC1` [Compound 237, 7-fluoro-6-(1-((4,5,6,7-tetrahydropyrazolo[1,5-a]pyridin-3-yl)sulfonyl)piperidin-4-yl)-[1,2,4]triazolo[1,5-a]pyridine], the pIC50 is 7.48.

For `Cc1cc2ncnn2cc1C1CCN(S(=O)(=O)c2cnn3c2CCCC3)CC1` [Compound 238, 7-methyl-6-(1-((4,5,6,7-tetrahydropyrazolo[1,5-a]pyridin-3-yl)sulfonyl)piperidin-4-yl)-[1,2,4]triazolo[1,5-a]pyridine], the pIC50 is 8.22.

`Cc1cc(C#N)ncc1C1=CCN(S(=O)(=O)c2cnn(C)c2C)CC1` [Compound 239, 1′-((1,5-dimethyl-1H-pyrazol-4-yl)sulfonyl)-4-methyl-1′,2′,3′,6′-tetrahydro-[3,4′-bipyridine]-6-carbonitrile]: the pIC50 was under 5.00.

With `Cc1cc(C#N)ncc1C1=CCN(S(=O)(=O)c2ccc3c(c2)CCO3)CC1` [Compound 240, 1′-((2,3-dihydrobenzofuran-5-yl)sulfonyl)-4-methyl-1′,2′,3′,6-tetrahydro-[3,4′-bipyridine]-6-carbonitrile], the pIC50 was under 5.00.

`O=S(=O)(c1cnn2c1CCCC2)N1CC=C(c2cc3ncnn3cc2Cl)CC1` [Compound 241, 6-chloro-7-(1-((4,5,6,7-tetrahydropyrazolo[1,5-a]pyridin-3-yl)sulfonyl)-1,2,3,6-tetrahydropyridin-4-yl)-[1,2,4]triazolo[1,5-a]pyridine]: the pIC50 is 6.67.

As for `O=S(=O)(c1cnn2c1CCCC2)N1CC=C(c2cn3ncnc3cc2Cl)CC1` [Compound 242, 7-chloro-6-(1-((4,5,6,7-tetrahydropyrazolo[1,5-a]pyridin-3-yl)sulfonyl)-1,2,3,6-tetrahydropyridin-4-yl)-[1,2,4]triazolo[1,5-a]pyridine], the pIC50 is 8.30.

On to `Cc1c(S(=O)(=O)N2CC=C(c3cnc4ncnn4c3C)CC2)cnn1C` [Compound 243, 6-(1-((1,5-dimethyl-1H-pyrazol-4-yl)sulfonyl)-1,2,3,6-tetrahydropyridin-4-yl)-7-methyl-[1,2,4]triazolo[1,5-a]pyrimidine], for which the pIC50 was under 5.00.

As for `Cc1c(C2=CCN(S(=O)(=O)c3ccc4c(c3)CCO4)CC2)cnc2ncnn12` [Compound 244, 6-(1-((2,3-dihydrobenzofuran-5-yl)sulfonyl)-1,2,3,6-tetrahydropyridin-4-yl)-7-methyl-[1,2,4]triazolo[1,5-a]pyrimidine], the pIC50 is under 5.00.

For `Cc1ncc(S(=O)(=O)N2CCC(F)(c3cn4ncnc4cc3C)CC2)s1` [Compound 245, 5-((4-fluoro-4-(7-methyl-[1,2,4]triazolo[1,5-a]pyridin-6-yl)piperidin-1-yl)sulfonyl)-2-methylthiazole], the pIC50 is under 5.00.

In the case of `Cc1cc2nccn2nc1C1CCN(S(=O)(=O)c2cnn3c2CCC3)CC1` [Compound 246, 6-(1-((5,6-dihydro-4H-pyrrolo[1,2-b]pyrazol-3-yl)sulfonyl)piperidin-4-yl)-7-methylimidazo[1,2-b]pyridazine], the pIC50 was 7.77.

Take `Cc1cc2nccn2nc1C1CCN(S(=O)(=O)c2cnn3c2CCCC3)CC1` [Compound 247, 7-methyl-6-(1-((4,5,6,7-tetrahydropyrazolo[1,5-a]pyridin-3-yl)sulfonyl)piperidin-4-yl)imidazo[1,2-b]pyridazine]: the pIC50 is 7.72.

For `Cc1cc2nccn2nc1C1CCN(S(=O)(=O)c2c(C)nn(C)c2Cl)CC1` [Compound 248, 6-(1-((5-chloro-1,3-dimethyl-1-pyrazol-4-yl)sulfonyl)piperidin-4-yl)-7-methylimidazo[1,2-b]pyridazine], the pIC50 was 7.16.

`Cc1nc(C)c(S(=O)(=O)N2CCC(c3nn4ccnc4cc3C)CC2)s1` [Compound 249, 2,4-dimethyl-5-((4-(7-methylimidazo[1,2-b]pyridazin-6-yl)piperidin-1-yl)sulfonyl)thiazole]: the pIC50 was 5.59.

On to `Cc1cc2nccn2nc1C1CCN(S(=O)(=O)c2ccc3c(c2)N(C)CCO3)CC1` [Compound 250, 4-methyl-6-((4-(7-methylimidazo[1,2-b]pyridazin-6-yl)piperidin-1-yl)sulfonyl)-3,4-dihydro-2H-benzo[b][1,4]oxazine], for which the pIC50 is 5.82.

In the case of `Cc1cc2nccn2nc1C1CCN(S(=O)(=O)c2cnn(C)c2C)CC1` [Compound 251, 6-(1-((1,5-dimethyl-1H-pyrazol-4-yl)sulfonyl)piperidin-4-yl)-7-methylimidazo[1,2-b]pyridazine], the pIC50 is 7.47.

`Cc1cc2nccn2nc1C1CCN(S(=O)(=O)c2cnc(C)n2C)CC1` [Compound 252, 6-(1-((1,2-dimethyl-1H-imidazol-5-yl)sulfonyl)piperidin-4-yl)-7-methylimidazo[1,2-b]pyridazine]: the pIC50 is 6.91.

As for `O=S(=O)(c1cnn2c1NCCC2)N1CCC(c2cn3ncnc3cc2F)CC1` [Compound 253, 7-fluoro-6-(1-((4,5,6,7-tetrahydropyrazolo[1,5-a]pyrimidin-3-yl)sulfonyl)piperidin-4-yl)-[1,2,4]triazolo[1,5-a]pyridine], the pIC50 is 7.24.

As to `[2H]C([2H])([2H])n1cc(S(=O)(=O)N2CCC(c3cn4ncnc4cc3C)CC2)c(Cl)n1` [Compound 256, 6-(1-((3-chloro-1-(methyl-d3)-1H-pyrazol-4-yl)sulfonyl)piperidin-4-yl)-7-methyl-[1,2,4]triazolo[1,5-a]pyridine], the pIC50 was 7.28.

As for `[2H]C([2H])([2H])n1nc(Cl)c(S(=O)(=O)N2CCC(c3cn4ncnc4cc3F)CC2)c1C` [Compound 257, 6-(1-((3-chloro-5-methyl-1-(methyl-d3)-1H-pyrazol-4-yl)sulfonyl)piperidin-4-yl)-7-fluoro-[1,2,4]triazolo[1,5-a]pyridine], the pIC50 was 7.05.

Take `[2H]C([2H])([2H])n1cc(S(=O)(=O)N2CCC(c3cn4ncnc4cc3F)CC2)c(Cl)n1` [Compound 259, 6-(1-((3-chloro-1-(methyl-d3)-1H-pyrazol-4-yl)sulfonyl)piperidin-4-yl)-7-fluoro-[1,2,4]triazolo[1,5-a]pyridine]: the pIC50 was 5.52.

With `[2H]C([2H])([2H])n1nc(Cl)c(S(=O)(=O)N2CCC(c3cn4ncnc4cc3C)CC2)c1C` [Compound 260, 6-(1(3-chloro-5-methyl-1-(methyl-d3-1H-pyrazol-4-yl)sulfonyl)piperidin-4-yl)-7-methyl-[1,2,4]triazolo[1,5-a]pyridine], the pIC50 was 7.54.

`Cc1cc2ncnn2cc1C1CCN(S(=O)(=O)c2cnn3c2NCCC3)CC1` [Compound 261, 7-methyl-6-(1-((4,5,6,7-tetrahydropyrazolo[1,5-a]pyrimidin-3-yl)sulfonyl)piperidin-4-yl)-[1,2,4]triazolo[1,5-a]pyridine]: the pIC50 was 7.21.

Regarding `COc1cc2ncnn2cc1C1CCN(S(=O)(=O)c2cnn3c2CCC3)CC1` [Compound 263, 6-(1-((5,6-dihydro-4H-pyrrolo[1,2-b]pyrazol-3-yl)sulfonyl)piperidin-4-yl)-7-methoxy-[1,2,4]triazolo[1,5-a]pyridine], the pIC50 is 5.85.

Regarding `Cc1c(C2CCN(S(=O)(=O)c3cnn(C)c3C)CC2)cn2ncnc2c1F` [Compound 264, 6-(1-((1,5-dimethyl-1H-pyrazol-4-yl)sulfonyl)piperidin-4-yl)-8-fluoro-7-methyl-[1,2,4]triazolo[1,5-a]pyridine], the pIC50 is 7.68.

With `Cc1nn(C)c(C(F)(F)F)c1S(=O)(=O)N1CCC(c2cn3ncnc3c(F)c2C)CC1` [Compound 266, 6-(1-((1,3-dimethyl-5-(trifluoromethyl)-1H-pyrazol-4-yl)sulfonyl)piperidin-4-yl)-8-fluoro-7-methyl-[1,2,4]triazolo[1,5-a]pyridine], the pIC50 is 6.55.

Take `Cc1c(C2CCN(S(=O)(=O)c3ccc4c(c3)CCO4)CC2)cn2ncnc2c1F` [Compound 267, 6-(1-((2,3-dihydrobenzofuran-5-yl)sulfonyl)piperidin-4-yl)-8-fluoro-7-methyl-[1,2,4]triazolo[1,5-a]pyridine]: the pIC50 was 6.68.

Regarding `Cc1c(C2CCN(S(=O)(=O)c3cnn4c3CCC4)CC2)cn2ncnc2c1F` [Compound 268, 6-(1-((5,6-dihydro-4H-pyrrolo[1,2-b]pyrazol-3-yl)sulfonyl)piperidin-4-yl)-8-fluoro-7-methyl-[1,2,4]triazolo[1,5-a]pyridine], the pIC50 was 7.85.

On to `Cc1c(C2CCN(S(=O)(=O)c3cnn(C(F)F)c3C)CC2)cn2ncnc2c1F` [Compound 269, 6-(1-((1-(difluoromethyl)-5-methyl-1H-pyrazol-4-yl)sulfonyl)piperidin-4-yl)-8-fluoro-7-methyl-[1,2,4]triazolo[1,5-a]pyridine], for which the pIC50 is 6.49.

As for `O=S(=O)(c1cnn2c1CCCC2)N1CCC(c2cn3ncnc3cc2C(F)(F)F)CC1` [Compound 271, 6-(1-((4,5,6,7-tetrahydropyrazolo[1,5-a]pyridin-3-yl)sulfonyl)piperidin-4-yl)-7-(trifluoromethyl)-[1,2,4]triazolo[1,5-a]pyridine], the pIC50 was 7.29.
